Key:
[1] = biological target: T1, Growth factor receptor-bound protein 2 (Homo sapiens, UniProt P62993); experiment: Binding off-rate against growth factor receptor bound protein 2
[2] = biological target: T1, Growth factor receptor-bound protein 2; experiment: Dissociation constant value against growth factor receptor bound protein 2
[3] = biological target: T1, Growth factor receptor-bound protein 2; experiment: Inhibitory concentration against growth factor receptor bound protein 2
[4] = biological target: T1, Growth factor receptor-bound protein 2; experiment: Binding on-rate against growth factor receptor bound protein 2

Compound	koff [1]	Kd [2]	IC50 [3]	Ka [4]
Cc1ccc2c(ccn2C[C@@H]2C/C=C/[C@H](c3ccc(NC(=O)C(=O)O)cc3)[C@H](CC(=O)O)C(=O)NC3(CCCCC3)C(=O)N[C@@H](CC(N)=O)C(=O)NC2)c1	0.0508 s⁻¹	67 nM	8.8 nM	
Cc1ccc2c(ccn2C[C@@H]2C/C=C/[C@H](c3ccc(C(C(=O)O)C(=O)O)cc3)[C@H](CC(=O)O)C(=O)NC3(CCCCC3)C(=O)N[C@@H](CC(N)=O)C(=O)NC2)c1	0.0227 s⁻¹	3.62 nM	3.3 nM	
Cc1ccc2c(ccn2C[C@@H]2C/C=C/[C@H](c3ccc([N+](=O)[O-])cc3)[C@H](CC(=O)O)C(=O)NC3(CCCCC3)C(=O)N[C@@H](CC(N)=O)C(=O)NC2)c1		> 1000 nM		
Cc1ccc2c(ccn2C[C@@H]2C/C=C/[C@H](c3ccc(CC(=O)O)cc3)[C@H](CC(=O)O)C(=O)NC3(CCCCC3)C(=O)N[C@@H](CC(N)=O)C(=O)NC2)c1	0.0101 s⁻¹	33 nM	22.5 nM	
Cc1ccc2c(ccn2C[C@@H]2C/C=C/[C@H](c3ccc(CP(=O)(O)O)cc3)[C@H](CC(=O)O)C(=O)NC3(CCCCC3)C(=O)N[C@@H](CC(N)=O)C(=O)NC2)c1	0.00801 s⁻¹	1.47 nM	15 nM	5.46e+06 M⁻¹ s⁻¹

The remaining lines, values ahead:

koff [1]	Kd [2]	IC50 [3]	Ka [4]	Compound
0.00512 s⁻¹	35.3 nM	8.4 nM		Cc1ccc2c(ccn2C[C@@H]2C/C=C/[C@H](c3ccc(CP(=O)(O)Cc4ccccc4)cc3)[C@H](CC(=O)O)C(=O)NC3(CCCCC3)C(=O)N[C@@H](CC(N)=O)C(=O)NC2)c1
	> 1000 nM			Cc1ccc2c(ccn2C[C@@H]2C/C=C/[C@H](c3ccc(O)cc3)[C@H](CC(=O)O)C(=O)NC3(CCCCC3)C(=O)N[C@@H](CC(N)=O)C(=O)NC2)c1
0.00988 s⁻¹	16.2 nM	6.3 nM		Cc1ccc2c(ccn2C[C@@H]2C/C=C/[C@H](c3ccc(CP(C)(=O)O)cc3)[C@H](CC(=O)O)C(=O)NC3(CCCCC3)C(=O)N[C@@H](CC(N)=O)C(=O)NC2)c1

Reference: ChEMBL document CHEMBL1139537, “Examination of phosphoryl-mimicking functionalities within a macrocyclic Grb2 SH2 domain-binding platform” (J Med Chem, 2005)
